Results reported in patent US11873287B2, “Piperidine-2,6-dione derivatives and ulcerative colitis treating” (TIANJIN HEMAY PHARMACEUTICAL SCI-TECH CO., LTD, priority 2016, dated 2024).
Values joined by “and” are separate entries in the source; they are usually repeats but may differ in a detail not shown here. Identical values can stand only once.

Legend:
ICR mice = assay: Acute toxicity experiment of single oral administration in mice; assay type: in vivo
Description: The mice were fasted one day before the experiment. On the day of the experiment, 6 mice (ICR mice, body weight of 19-21 g, three females and three males) were selected in each experiment group. First of all, one female and one male were selected to orally give 1000 mg/Kg, and observed for 5-10 minutes. If there were no obvious side effects, the remaining 4 animals were orally given the same dose, and observed for 10-15 minutes. If no animal died, the animals were placed in a box to balancedly feed for 7 days. The state was observed and the body weight was recorded daily.
Observation Indexes within 0-15 Minutes After Administration
Activity: restlessness, hyperactivity
Nervous system response: tremor, spasm, convulsion, ataxia, posture abnormality, etc.
Autonomic nerve: exophthalmos, salivation, tears, urination (hematuria), diarrhea, piloerection, breathing, etc.
Observation Indexes Over 7 Days
State of Animal: lethargy, hyperactivity, excitement, hair loss, diarrhea, abnormal behavior, death, etc.

[1] = test system: DSS-Induced inflammatory Bowel Disease Models in Mice; assay: DSS-induced inflammatory bowel disease model in mice (Biological Example 4, 1.3% DSS); assay type: in vivo, C57BL/6 mice; conditions: 30 mg/Kg i.g. Q.D
Description: 40 healthy female C57BL/6 mice having weight of 16-19 g were randomly divided into 4 groups in accordance with weight. There were 10 mice in each group (see Table 6 below). The first day of the experiment was recorded as Day 0. The administration regimen and induction regimen were detailed in Table 6. The change in weight of experimental animals was recorded every day. […] Samples of animal colonic tissues were obtained to measure the length. One-way ANOVA analysis of mice weights was performed by SPSS22. Statistical analyses between groups were performed. Mann-Whitney U non-parametric test was performed on the length of colon.
The experimental method used in the present biological example is identical to those in Biological Example 3.
Calculation Formula of Inhibitory Rate of Colonic Reduction: (Length of Colon in Administration Group−Length of Colon in Model Group)/(Length of Colon in Blank Group−Length of Colon in Model Group)

[2] = Day 1, 1000 mg/Kg single oral dose
[3] = Day 2, 1000 mg/Kg single oral dose
[4] = Day 3, 1000 mg/Kg single oral dose
[5] = Day 4, 1000 mg/Kg single oral dose
[6] = Day 5, 1000 mg/Kg single oral dose
[7] = Day 6, 1000 mg/Kg single oral dose
[8] = Day 7, 1000 mg/Kg single oral dose
[9] = Day 1, 1000 mg/Kg single oral dose, 1000 mg/kg
[10] = Day 2, 1000 mg/Kg single oral dose, 1000 mg/kg
[11] = Day 3, 1000 mg/Kg single oral dose, 1000 mg/kg
[12] = Day 4, 1000 mg/Kg single oral dose, 1000 mg/kg
[13] = Day 5, 1000 mg/Kg single oral dose, 1000 mg/kg
[14] = Day 6, 1000 mg/Kg single oral dose, 1000 mg/kg
[15] = Day 7, 1000 mg/Kg single oral dose, 1000 mg/kg
[16] = Female, 1000 mg/Kg single oral dose
[17] = Male, 1000 mg/Kg single oral dose

| SMILES | Daily Body Weight of Tested Female Mice (Mean ± SD) (ICR mice; [2]) [g] | Daily Body Weight of Tested Male Mice (Mean ± SD) (ICR mice; [2]) [g] | Daily Body Weight of Tested Female Mice (Mean ± SD) (ICR mice; [3]) [g] | Daily Body Weight of Tested Male Mice (Mean ± SD) (ICR mice; [3]) [g] | Daily Body Weight of Tested Female Mice (Mean ± SD) (ICR mice; [4]) [g] | Daily Body Weight of Tested Male Mice (Mean ± SD) (ICR mice; [4]) [g] | Daily Body Weight of Tested Female Mice (Mean ± SD) (ICR mice; [5]) [g] | Daily Body Weight of Tested Male Mice (Mean ± SD) (ICR mice; [5]) [g] | Daily Body Weight of Tested Female Mice (Mean ± SD) (ICR mice; [6]) [g] | Daily Body Weight of Tested Male Mice (Mean ± SD) (ICR mice; [6]) [g] | Daily Body Weight of Tested Female Mice (Mean ± SD) (ICR mice; [7]) [g] | Daily Body Weight of Tested Male Mice (Mean ± SD) (ICR mice; [7]) [g] | Daily Body Weight of Tested Female Mice (Mean ± SD) (ICR mice; [8]) [g] | Daily Body Weight of Tested Male Mice (Mean ± SD) (ICR mice; [8]) [g] | Summary of toxic response of tested animals in 7 Days (ICR mice; [16]) | Summary of toxic response of tested animals in 7 Days (ICR mice; [17]) | also measured |
| --- | --- | --- | --- | --- | --- | --- | --- | --- | --- | --- | --- | --- | --- | --- | --- | --- | --- |
| COCCN1C(=O)CCC(N2C(=O)c3cccc(NC(C)=O)c3C2=O)C1=O (centres unmarked) [Example 1, 4-acetylamino-2-(1-(2-methoxyethyl)-2,6-dioxopiperidin-3-yl)isoindolin-1,3-dione] | 18.5 ± 0.1 | 20.1 ± 1.4 | 22.8 ± 0.3 | 23.8 ± 1.4 | 23.2 ± 0.7 | 24.9 ± 1.0 | 24.0 ± 0.2 | 26.3 ± 1.2 | 25.3 ± 1.6 | 27.7 ± 1.3 | 25.7 ± 1.6 | 29.2 ± 1.4 | 27.1 ± 1.1 | 29.4 ± 1.4 | – | – | – |
| COCCN1C(=O)CCC(N2C(=O)c3cccc(N(C)C)c3C2=O)C1=O (centres unmarked) [Example 3, 4-dimethylamino-2-(1-(2-methoxyethyl)-2,6-dioxopiperidin-3-yl)isoindolin-1,3-dione] | – | – | – | – | – | – | – | – | – | – | – | – | – | – | Abnormality was not observed in 7 days of the test | Abnormality was not observed in 7 days of the test | Daily Body Weight of Tested Female Mice (Mean ± SD) (ICR mice; [9]): 18.3 ± 0.4 g and 18.8 ± 0.4 g; Daily Body Weight of Tested Male Mice (Mean ± SD) (ICR mice; [9]): 18.8 ± 0.7 g and 18.0 ± 0.2 g; Daily Body Weight of Tested Female Mice (Mean ± SD) (ICR mice; [10]): 21.7 ± 0.2 g and 22.1 ± 1.2 g; Daily Body Weight of Tested Male Mice (Mean ± SD) (ICR mice; [10]): 23.3 ± 0.1 g and 22.9 ± 0.3 g; Daily Body Weight of Tested Female Mice (Mean ± SD) (ICR mice; [11]): 22.3 ± 0.2 g and 22.7 ± 0.8 g; Daily Body Weight of Tested Male Mice (Mean ± SD) (ICR mice; [11]): 24.3 ± 0.1 g and 24.3 ± 0.9 g; Daily Body Weight of Tested Female Mice (Mean ± SD) (ICR mice; [12]): 22.6 ± 0.8 g and 23.0 ± 1.4 g; Daily Body Weight of Tested Male Mice (Mean ± SD) (ICR mice; [12]): 25.6 ± 0.7 g and 25.2 ± 1.1 g; Daily Body Weight of Tested Female Mice (Mean ± SD) (ICR mice; [13]): 23.0 ± 1.4 g and 23.7 ± 1.9 g; Daily Body Weight of Tested Male Mice (Mean ± SD) (ICR mice; [13]): 26.9 ± 0.8 g and 27.0 ± 1.3 g; Daily Body Weight of Tested Female Mice (Mean ± SD) (ICR mice; [14]): 22.6 ± 1.3 g and 24.1 ± 1.2 g; Daily Body Weight of Tested Male Mice (Mean ± SD) (ICR mice; [14]): 27.9 ± 0.9 g and 28.2 ± 1.9 g; Daily Body Weight of Tested Female Mice (Mean ± SD) (ICR mice; [15]): 22.7 ± 0.4 g and 24.4 ± 1.8 g; Daily Body Weight of Tested Male Mice (Mean ± SD) (ICR mice; [15]): 28.6 ± 0.4 g and 28.5 ± 2.7 g |
| COCCN1C(=O)CCC(N2C(=O)c3ccc(F)c(N)c3C2=O)C1=O (centres unmarked) [Example 9, 4-amino-S-fluoro-2-(1-(2-methoxyethyl)-2,6-dioxopiperidin-3-yl)isoindolin-1,3-dione] | – | – | – | – | – | – | – | – | – | – | – | – | – | – | – | – | Summary of toxic response of tested animals in 7 Days (ICR mice; mouse, in vivo, po, 1000 mg/kg): Abnormality was not observed in 7 days of the test |
| COCCN1C(=O)CCC(N2C(=O)c3c(N)ccc(O)c3C2=O)C1=O (centres unmarked) [Example 10, 4-amino-7-hydroxy-2-(1-(2-methoxyethyl)-2,6-dioxopiperidin-3-yl)isoindolin-1,3-dione] | 19.2 ± 0.5 | 19.4 ± 0.3 | 21.9 ± 0.4 | 24.4 ± 0.6 | 22.4 ± 0.2 | 25.5 ± 0.9 | 22.4 ± 0.2 | 25.5 ± 0.9 | 22.9 ± 0.6 | 26.8 ± 0.9 | 24.1 ± 1.5 | 29.2 ± 0.7 | 24.2 ± 1.8 | 30.3 ± 0.7 | Decrease of activity was observed in all the animals within 30 | Decrease of activity was observed in all the animals within 30 | – |
| CSCCN1C(=O)CCC(N2C(=O)c3cccc(N)c3C2=O)C1=O (centres unmarked) [Example 11, 4-amino-2-(1-(2-methylthioethyl)-2,6-dioxopiperidin-3-yl)isoindolin-1,3-dione] | 18.1 ± 0.2 | 19.5 ± 0.6 | 21.7 ± 0.2 | 23.7 ± 0.8 | 22.4 ± 0.1 | 25.4 ± 0.4 | 22.4 ± 0.1 | 25.4 ± 0.4 | 23.5 ± 0.4 | 27.0 ± 0.5 | 23.2 ± 0.8 | 29.0 ± 0.7 | 23.2 ± 0.9 | 29.8 ± 1.0 | Decrease of activity was observed in one animal after | Abnormality was not observed in 7 days of the test | – |
| COCCCN1C(=O)CCC(N2C(=O)c3cccc(NC(C)=O)c3C2=O)C1=O (centres unmarked) [Example 16, 4-acetylamino-2-(1-(3-methoxypropyl)-2,6-dioxopiperidin-3-yl)isoindolin-1,3-dione] | – | – | – | – | – | – | – | – | – | – | – | – | – | – | – | – | Average Length of Colon (Mean ± SD) ([1]; 1.3% DSS days 0-5): 7.0 ± 0.4 cm; Inhibitory Rate of Colonic Reduction ([1]; 1.3% DSS days 0-5): 73.3%; Weights of Experimental Mice (Mean ± SD) ([1]; Day 0): 19.8 ± 0.6 g; Weights of Experimental Mice (Mean ± SD) ([1]; Day 1): 19.9 ± 0.4 g; Weights of Experimental Mice (Mean ± SD) ([1]; Day 2): 19.7 ± 0.4 g; Weights of Experimental Mice (Mean ± SD) ([1]; Day 3): 19.9 ± 0.6 g; Weights of Experimental Mice (Mean ± SD) ([1]; Day 4): 19.7 ± 0.5 g; Weights of Experimental Mice (Mean ± SD) ([1]; Day 5): 19.6 ± 0.5 g; Weights of Experimental Mice (Mean ± SD) ([1]; Day 6): 19.3 ± 0.7 g; Weights of Experimental Mice (Mean ± SD) ([1]; Day 7): 19.0 ± 1.0 g; Weights of Experimental Mice (Mean ± SD) ([1]; Day 8): 18.9 ± 1.2 g; Weights of Experimental Mice (Mean ± SD) ([1]; Day 9): 18.9 ± 1.1 g |
| COCCCN1C(=O)CCC(N2C(=O)c3ccc(N)cc3C2=O)C1=O (centres unmarked) [Example 18, 5-amino-2-(1-(3-methoxypropyl)-2,6-dioxopiperidin-3-yl)isoindolin-1,3-dione] | 18.4 ± 0.7 | 18.2 ± 0.4 | 22.5 ± 0.8 | 23.0 ± 0.7 | 23.8 ± 1.1 | 24.1 ± 0.4 | 24.8 ± 1.5 | 25.6 ± 0.8 | 24.8 ± 0.6 | 28.1 ± 1.1 | 25.4 ± 0.7 | 29.0 ± 1.4 | 25.2 ± 1.1 | 29.0 ± 1.0 | – | – | – |
